Test results from publication PMC8952208, “Synthesis, Antiplasmodial, and Antileukemia Activity of Dihydroartemisinin–HDAC Inhibitor Hybrids as Multitarget Drugs” (Pharmaceuticals, 2022).

Tests used:
[1] = test system: MOLM13 cells; assay: CellTiter-Glo cell viability assay, MOLM13; assay type: cell-based, human; settings: for IC50: Homo sapiens, MOLM-13, AML, 72 h, CellTiter-Glo, n = 3; for Selectivity index range healthy fibroblasts vs MOLM13: SI = (healthy fibroblast IC50)/(leukemia cell line IC50), range over two fibroblasts
Description: (§1) Healthy individually-derived fibroblasts were cultured in DMEM supplemented with 10% FCS. Regular cell line authentication was performed short tandem repeat (STR) analysis (DNA fingerprinting), followed by comparison with the original DSMZ cell line database.
(§2) Cell viability assay was performed with leukemic cell lines after 72 h incubation with the respective inhibitors using ATP-based CellTiter-Glo luminescent assay (Promega, Madison, WI, USA).

[2] = test system: Healthy Fibroblast 1; assay: Cytotoxicity against healthy fibroblast 1; assay type: cell-based; settings: Homo sapiens, healthy individually-derived fibroblasts
Description: as §1, §2

[3] = test system: K562 cells; assay: CellTiter-Glo cell viability assay, K562; assay type: cell-based, human; settings: for IC50: Homo sapiens, K562, CML, 72 h, CellTiter-Glo, n = 3; for Selectivity index range healthy fibroblasts vs K562: SI = (healthy fibroblast IC50)/(leukemia cell line IC50), range over two fibroblasts
Description: as §1, §2

[4] = test system: Healthy Fibroblast 2; assay: Cytotoxicity against healthy fibroblast 2; assay type: cell-based; settings: Homo sapiens, healthy individually-derived fibroblasts
Description: as §1, §2

[5] = test system: five leukemia cell lines (K562, HL60, NALM6, HPBALL, MOLM13); assay: CellTiter-Glo cell viability assay, panel of five leukemia cell lines; assay type: cell-based, human; settings: for antiproliferative activity compared to DHA: number of the five leukemia cell lines in which DHA is exceeded
Description: as §1, §2

[6] = test system: K562 cells; assay: Annexin V-PI staining; assay type: cell-based, human; settings: 48 h, 0.4 µM or 0.8 µM
Description: To evaluate the induction of apoptosis upon respective inhibitor treatment, K562 cells were incubated (48 h) with inhibitors (0.4 µM or 0.8 µM) or with vehicle control (DMSO). The induction of apoptosis/necrosis was analyzed by measuring hypodiploid DNA content, mitochondrial potential, and exposure of phosphatidylserine after annexin/propidium iodide (PI) staining kit (BD, Franklin lakes, NJ, USA) using FACS.

[7] = target: T1, human HDAC1 (hHDAC1) (Homo sapiens, UniProt Q13547); assay: In vitro human HDAC1 assay (ZMAL substrate); assay type: biochemical
T1 construct: purchased BPS Bioscience Inc. 50051
T1 sequence (Q13547 whole entry): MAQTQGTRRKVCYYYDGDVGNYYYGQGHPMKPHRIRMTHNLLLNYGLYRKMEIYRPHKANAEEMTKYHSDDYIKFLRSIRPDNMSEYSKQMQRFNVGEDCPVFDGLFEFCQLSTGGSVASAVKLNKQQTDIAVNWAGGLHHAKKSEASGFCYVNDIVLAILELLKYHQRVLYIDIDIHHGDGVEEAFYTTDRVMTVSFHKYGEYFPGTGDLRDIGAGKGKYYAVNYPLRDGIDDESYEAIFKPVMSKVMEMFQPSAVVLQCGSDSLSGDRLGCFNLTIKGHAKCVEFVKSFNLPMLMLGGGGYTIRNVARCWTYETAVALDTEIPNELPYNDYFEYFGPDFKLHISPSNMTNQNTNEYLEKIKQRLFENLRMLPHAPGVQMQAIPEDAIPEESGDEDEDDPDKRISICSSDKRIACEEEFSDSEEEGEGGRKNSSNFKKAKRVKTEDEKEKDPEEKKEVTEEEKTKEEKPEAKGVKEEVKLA
Description: OptiPlate-96 black microplates (Perkin Elmer Inc., Waltham, MA, USA) were used with an assay volume of 50 µL. […] After an incubation time of 90 min, 50 µL of 0.4 mg/mL trypsin in trypsin buffer (50 mM Tris-HCl, pH 8.0, and 100 mM NaCl) was added, followed by further incubation at 37 °C for 30 min.

[8] = test system: NALM6 cells; assay: CellTiter-Glo cell viability assay, NALM6; assay type: cell-based, human; settings: for IC50: Homo sapiens, NALM-6, B-ALL, 72 h, CellTiter-Glo, n = 3; for Selectivity index range healthy fibroblasts vs NALM6: SI = (healthy fibroblast IC50)/(leukemia cell line IC50), range over two fibroblasts
Description: as §1, §2

[9] = test system: HL60 cells; assay: CellTiter-Glo cell viability assay, HL60; assay type: cell-based, human; settings: for IC50: Homo sapiens, HL-60, AML, 72 h, CellTiter-Glo, n = 3; for Selectivity index range healthy fibroblasts vs HL60: SI = (healthy fibroblast IC50)/(leukemia cell line IC50), range over two fibroblasts
Description: as §1, §2

[10] = test system: P. falciparum Dd2 R539T; assay: In vitro P. falciparum growth inhibition assay (HRP2), Dd2 R539T; assay type: cell-based; settings: Plasmodium falciparum, DD2, 72 h, read-out: PfDd2 R539T IC50
Description: Antiplasmodial activity of DHA–HDACi hybrids was evaluated against the asexual stages of the laboratory P. falciparum strains (3D7, chloroquine-sensitive strain, and Dd2, chloroquine-resistant strain, and Dd2 R539T (MRA-1255), provided by BEI Resources carrying a kelch13-mutation that conveys partial artemisinin resistance), using the histidine-rich protein 2 (HRP2) assay, as previously described. In brief: 96-well plates were precoated with the tested compounds in a three-fold serial dilution before ring-stage parasites were added in complete culture medium at a hematocrit of 1.5% and a parasitaemia of 0.05%. After three days of incubation at 37 °C, 5% CO2 and 5% O2 plates were frozen until analyzed by HRP2-ELISA. All compounds were evaluated in duplicate in at least two independent experiments. The IC50 was determined by nonlinear regression analysis of log concentration-response curves using the drc-package v3.0.1 [40] of R v4.0.5..

[11] = test system: HPBALL cells; assay: CellTiter-Glo cell viability assay, HPBALL; assay type: cell-based, human; settings: for IC50: Homo sapiens, HPBALL, T-ALL, 72 h, CellTiter-Glo, n = 3; for Selectivity index range healthy fibroblasts vs HPB ALL: SI = (healthy fibroblast IC50)/(leukemia cell line IC50), range over two fibroblasts
Description: as §1, §2

[12] = test system: A2780 cells; assay: MTT cell viability assay; assay type: cell-based; settings: Homo sapiens, 72 h, n ≥ 3 in triplicate, mean ± SD
Description: Reagents were obtained from PAN Biotech, Aidenbach Germany. The cell line was cultured at 37 °C under humidified air with 5% CO2 to a confluence of 80–90% before being used for further assays.
Intrinsic cytotoxicity of test compounds was determined by an MTT assay as previously described. A2780 cells were seeded in 96-well plates (Starlab GmbH, Hamburg, Germany) at a density of 20,000 cells/well and allowed to attach for 12 h. Cells were then treated with increasing concentrations of the test compounds. After 72 h, MTT (3-(4,5-dimethylthiazol-2-yl)-2,5-diphenyltetrazolium bromide) (BioChemica, Applichem GmbH, Darmstadt, Germany) solution (5 mg/mL in phosphate-buffered saline) was added to determine cell survival. The formazan dye was dissolved in DMSO (Sigma-Aldrich, Darmstadt, Germany) after 1 h. Absorbance was measured at 570 nm and 690 nm in a Multiskan microplate photometer (Thermo Fisher Scientific, Waltham, MA, USA). Concentration-response curves were generated using the four-parameter logistic equation (GraphPad Prism 9.0, San Diego, USA), and mean IC50 values were calculated in triplicates based on at least three different experiments.

[13] = test system: P. falciparum 3D7; assay: microbe, parasite or virus in culture; assay type: cell-based; settings: Plasmodium falciparum, 3D7, 72 h; asexual blood stages, three days incubation; n ≥ 2 in duplicate, mean ± SD; read-out: Pf3D7 IC50
Description: (§3) [38, 39] […] After three days of incubation at 37 °C, 5% CO2 and 5% O2 plates were frozen until analyzed by HRP2-ELISA. All compounds were evaluated in duplicate in at least two independent experiments. The IC50 was determined by nonlinear regression analysis of log concentration-response curves using the drc-package v3.0.1 [40] of R v4.0.5..

[14] = test system: P. falciparum Dd2; assay: microbe, parasite or virus in culture; assay type: cell-based; settings: Plasmodium falciparum, DD2, 72 h, read-out: PfDd2 IC50
Description: as §3

Row | Structure (SMILES) | IC50 [1] [µM] | Selectivity index range healthy fibroblasts vs MOLM13 [1] | IC50 [2] [µM] | IC50 [3] [µM] | Selectivity index range healthy fibroblasts vs K562 [3] | IC50 [4] [µM] | antiproliferative activity compared to DHA [5] | IC50 [7] [µM] | IC50 [8] [µM] | Selectivity index range healthy fibroblasts vs NALM6 [8] | IC50 [9] [µM] | Selectivity index range healthy fibroblasts vs HL60 [9] | IC50 [10] [µM] | IC50 [11] [µM] | Selectivity index range healthy fibroblasts vs HPB ALL [11] | IC50 [12] [µM] | IC50 [13] [µM] | IC50 [14] [µM] | apoptosis induction (annexin V/PI) [6] | other results
1 | C[C@H]1[C@@H](SCc2ccc(C(=O)NO)cc2)O[C@@H]2O[C@@]3(C)CC[C@H]4[C@H](C)CC[C@@H]1[C@@]24OO3 [(α)-7c, N-Hydroxy-4-((((3R,5aS,6R,8aS,9R,10R,12S,12aR)-3,6,9-trimethyldecahydro-12H-3,12-epoxy[1,2]dioxepino[4,3-i]isochromen-10-yl)thio)methyl)benzamide] | 0.33 ± 0.11 | 23-39 | 12.69 ± 0.12 | 0.62 ± 0.06 | 12-21 | 7.41 ± 1.4 | all five cell lines | 2 ± 0.2 | 0.28 ± 0.05 | 27-45 | 1.02 ± 0.27 | 7-12 | 0.0033 ± 0.0022 | 6.72 ± 0.44 | 1.1-1.9 | 1.1 ± 0.25 | 0.0033 ± 0.0014 | 0.0034 ± 0.00012 | – | necrosis induction (annexin V/PI) [6]: induced significant necrosis
2 | C[C@H]1[C@H](SCc2ccc(C(=O)NO)cc2)O[C@@H]2O[C@@]3(C)CC[C@H]4[C@H](C)CC[C@@H]1[C@@]24OO3 [(β)-7c, N-Hydroxy-4-((((3R,5aS,6R,8aS,9R,10S,12S,12aR)-3,6,9-trimethyldecahydro-12H-3,12-epoxy[1,2]dioxepino[4,3-i]isochromen-10-yl)thio)methyl)benzamide] | 0.38 ± 0.07 | 39-47 | 14.7 ± 3.42 | 0.41 ± 0.11 | 36-43 | 17.8 ± 6.04 | outperforming DHA in four out of five | 2.79 ± 0.14 | 0.25 ± 0.01 | 59-71 | 2.34 ± 0.46 | 6-8 | 0.0026 ± 0.002 | 12.3 ± 0.57 | 1.2-1.4 | 0.88 ± 0.13 | 0.0036 ± 0.0011 | 0.0032 ± 2e-05 | significantly induced apoptosis as compared to DHA | –
3 | C[C@@H]1CC[C@H]2[C@@H](C)C(OCc3ccc(/C=C/C(=O)NO)cc3)O[C@@H]3O[C@@]4(C)CC[C@@H]1[C@]32OO4 (stereo partly drawn) [Compound 7a, (E)-N-Hydroxy-3-(4-((((3R,5aS,6R,8aS,9R,12R,12aR)-3,6,9-trimethyldecahydro-12H-3,12-epoxy[1,2]dioxepino[4,3-i]isochromen-10-yl)oxy)methyl)phenyl)acrylamide] | 0.22 ± 0.04 | 29-60 | 13.1 ± 0.1 | 0.31 ± 0.06 | 21-42 | 6.34 ± 0.79 | all five cell lines | 0.546 ± 0.0003 | 0.15 ± 0.01 | 42-87 | 1.33 ± 0.14 | 5-10 | 0.0019 ± 0.0014 | 1.36 ± 0.03 | 5-10 | 1.95 ± 0.52 | 0.0026 ± 0.0014 | 0.0017 ± 0.00092 | significantly induced apoptosis as compared to DHA | IC50 ([5]; Homo sapiens, range over K562, HL60, NALM6, HPBALL, MOLM13, read-out: IC50 values across the five leukemia cell lines): 0.15 to 1.36 µM; selectivity indices (SI) fibroblasts over leukemia cells, highest ([5]; highest SI across leukemia cell lines and fibroblasts): up to 87
4 | C[C@H]1[C@@H](O)O[C@@H]2O[C@@]3(C)CC[C@H]4[C@H](C)CC[C@@H]1[C@@]24OO3 [DHA, dihydroartemisinin] | 0.69 ± 0.17 | – | > 25 | 2.4 ± 0.66 | – | > 25 | – | > 10 | 2.5 ± 0.16 | – | 3.57 ± 1.04 | – | – | 9.93 ± 1.51 | – | 0.97 ± 0.07 | 0.003 ± 0.0027 | 0.0018 ± 2e-05 | – | –
